From US20090252673A1, “Methods of Making and Using Rubidium-81-Containing Compositions” (priority 2006, published 2009)

Key:
[1] = system: occlusion/reperfusion rat heart model; test: Ex vivo dual tracer autoradiography, Tl-201 and Rb-81 redistribution kinetics; format: in vivo, rats; details: for activity in occluded areas, percent of the uptake in normal tissues: 20 μm heart slices, phosphor-imager ROIs
Procedure: Three additional rats were simultaneously injected with 20 MBq Rb-81 and 2.7 MBq Tl-201. After the occlusion/injection/reperfusion procedure was completed (see FIG. 8), the animals were sacrificed at 0, 15 and 45 min after initiating the reperfusion.
After the hearts of the animals were removed and freshly frozen in liquid nitrogen, they were sliced into short axis 20 μm slices. Radioactivity in the tissues sections was determined by using a phosphor-imager. Rb-81 was measured over a period of 3 h directly after preparation of the slices, whereas the Tl-201 activity was determined after the Rb-81 activity was almost completed (Rb-81: t1/2=4.58 h versus a 4 day decay period).
Quantitative evaluations were carried out by comparison of the detected counts within regions-of-interest in both, normal tissue areas and occluded tissues areas. Comparisons are given in percent of normal heart tissue.

[2] = Biodistribution of Rb-81 in rats; format: in vivo, female Wistar rats; details: mean±SD, n=3
Procedure: 1.85-5.33 MBq (50-144 μCi) Rb-81 in 250 μl isotonic saline was injected into the lateral tail vein of 24 non-fasted female Wistar rats weighing 180-220 g (12 animals at each day).
All the animals were anesthesized with Isofluran (1.5 vol. % and 2.01/min 02) during the injection of the Rb-81 solution. 5 min, 10 min, 20 min, 30 min, 45 min, 1 h, 2 h and 4 h post injection of the Rb-81 solution, the animals were sacrificed by carbon dioxide inhalation (n=3 animals for all time points).
The organs of interest (heart, blood, lungs, liver, stomach, spleen, pancreas, small intestine, colon, kidney, adrenal gland, muscle, bone, brain and tail) were dissected, weighed and measured for activity using a well-type g-counter. Tracer accumulation was normalized to the organ weights. All data are expressed as percent of the injected dose per gram tissue (% ID/g, mean±SD).

[3] = system: rat heart (myocardium), normal and occlusion/reperfusion; test: Imaging of rat hearts using a small animal PET scanner; format: in vivo, female Wistar rats
Procedure: For the PET measurements, a microPET FOCUS 120 small animal scanner (Siemens Medical Solutions USA, Inc.) was used. Imaging was done on 4 female Wistar rats (200-250 g) (see Tab. 1). […] After 5 min, the occlusion was removed and dynamic PET images of the animals were taken for 4 h and 2 h. Two rats were used as controls without occlusion (rest). The first rat was injected with 20.2 MBq Rb-81 and the second rat with 69.3 MBq Rb-81, in 500 μl isotonic saline. Following injection, dynamic PET images of the animals were taken for 4 h (S1#1 und S1#2) and 2 h (S2#3 and S2#4). The Rb-81 solution was injected intravenously in the lateral tail vein of all animals. For occlusion, a 7-0 polypropylene suture on a small curved needle was passed through the left coronary artery (LCA), and ligated to occlude the LCA. After tracer injection, reperfusion was obtained by cutting the suture. LCA occlusion and reperfusion were confirmed by the color change of myocardial surface. […]
After PET imaging, all animals were sacrificed by carbon dioxide inhalation and the organs of interest (see above) were dissected, weighed and measured for activity using a well-type g-counter. […] All data are expressed as percent of the injected dose per gram tissue (% ID/g, mean±SD). […]

[4] = 5 min after application into the tail vein
[5] = 10 min after application into the tail vein
[6] = 20 min after application into the tail vein
[7] = 30 min after application into the tail vein
[8] = 45 min after application into the tail vein
[9] = 60 min after application into the tail vein
[10] = 120 min after application into the tail vein
[11] = 240 min after application into the tail vein

[81Rb] [Rb-81, Rubidium-81]
activity in occluded areas, percent of the uptake in normal tissues ([1]; 0 min p.i.): 7%
activity in occluded areas, percent of the uptake in normal tissues ([1]; 15 min p.i.): 37%
activity in occluded areas, percent of the uptake in normal tissues ([1]; 45 min p.i.): 82%
redistribution kinetics ([1]; compared with Tl-201, occluded heart areas after reperfusion): considerably faster
biodistribution, Adrenals [2, 4]: 3.68 ± 0.89 % ID/g
biodistribution, Blood [2, 4]: 0.25 ± 0.07 % ID/g
biodistribution, Bone [2, 4]: 0.48 ± 0.10 % ID/g
biodistribution, Brain [2, 4]: 0.10 ± 0.02 % ID/g
biodistribution, Heart [2, 4]: 4.18 ± 0.18 % ID/g
biodistribution, Kidney [2, 4]: 9.21 ± 0.98 % ID/g
biodistribution, Large Intestine [2, 4]: 1.03 ± 0.82 % ID/g
biodistribution, Liver [2, 4]: 1.25 ± 0.05 % ID/g
biodistribution, Lung [2, 4]: 2.09 ± 0.43 % ID/g
biodistribution, Muscle [2, 4]: 0.18 ± 0.02 % ID/g
biodistribution, Pancreas [2, 4]: 1.81 ± 0.20 % ID/g
biodistribution, Small Intestine [2, 4]: 4.06 ± 0.91 % ID/g
biodistribution, Spleen [2, 4]: 1.45 ± 0.30 % ID/g
biodistribution, Stomach [2, 4]: 0.80 ± 0.41 % ID/g
biodistribution, Adrenals [2, 5]: 3.44 ± 1.07 % ID/g
biodistribution, Blood [2, 5]: 0.22 ± 0.04 % ID/g
biodistribution, Bone [2, 5]: 0.66 ± 0.09 % ID/g
biodistribution, Brain [2, 5]: 0.09 ± 0.03 % ID/g
biodistribution, Heart [2, 5]: 4.30 ± 0.68 % ID/g
biodistribution, Kidney [2, 5]: 6.96 ± 1.39 % ID/g
biodistribution, Large Intestine [2, 5]: 1.22 ± 0.05 % ID/g
biodistribution, Liver [2, 5]: 2.37 ± 0.20 % ID/g
biodistribution, Lung [2, 5]: 1.74 ± 0.18 % ID/g
biodistribution, Muscle [2, 5]: 0.31 ± 0.12 % ID/g
biodistribution, Pancreas [2, 5]: 2.70 ± 0.02 % ID/g
biodistribution, Small Intestine [2, 5]: 3.47 ± 0.33 % ID/g
biodistribution, Spleen [2, 5]: 1.88 ± 0.21 % ID/g
biodistribution, Stomach [2, 5]: 0.63 ± 0.26 % ID/g
biodistribution, Adrenals [2, 6]: 2.92 ± 0.45 % ID/g
biodistribution, Blood [2, 6]: 0.21 ± 0.04 % ID/g
biodistribution, Bone [2, 6]: 0.65 ± 0.15 % ID/g
biodistribution, Brain [2, 6]: 0.11 ± 0.02 % ID/g
biodistribution, Heart [2, 6]: 2.55 ± 0.47 % ID/g
biodistribution, Kidney [2, 6]: 2.90 ± 0.51 % ID/g
biodistribution, Large Intestine [2, 6]: 0.70 ± 0.07 % ID/g
biodistribution, Liver [2, 6]: 2.47 ± 0.64 % ID/g
biodistribution, Lung [2, 6]: 1.62 ± 0.46 % ID/g
biodistribution, Muscle [2, 6]: 0.31 ± 0.02 % ID/g
biodistribution, Pancreas [2, 6]: 2.29 ± 0.73 % ID/g
biodistribution, Small Intestine [2, 6]: 2.73 ± 0.64 % ID/g
biodistribution, Spleen [2, 6]: 1.97 ± 0.47 % ID/g
biodistribution, Stomach [2, 6]: 1.20 ± 0.46 % ID/g
biodistribution, Adrenals [2, 7]: 2.08 ± 0.60 % ID/g
biodistribution, Blood [2, 7]: 0.19 ± 0.03 % ID/g
biodistribution, Bone [2, 7]: 0.63 ± 0.03 % ID/g
biodistribution, Brain [2, 7]: 0.09 ± 0.01 % ID/g
biodistribution, Heart [2, 7]: 2.69 ± 0.32 % ID/g
biodistribution, Kidney [2, 7]: 2.91 ± 0.37 % ID/g
biodistribution, Large Intestine [2, 7]: 0.53 ± 0.14 % ID/g
biodistribution, Liver [2, 7]: 2.60 ± 0.43 % ID/g
biodistribution, Lung [2, 7]: 1.73 ± 0.31 % ID/g
biodistribution, Muscle [2, 7]: 0.36 ± 002 % ID/g
biodistribution, Pancreas [2, 7]: 2.12 ± 0.13 % ID/g
biodistribution, Small Intestine [2, 7]: 2.33 ± 0.72 % ID/g
biodistribution, Spleen [2, 7]: 1.26 ± 0.78 % ID/g
biodistribution, Stomach [2, 7]: 0.88 ± 0.24 % ID/g
biodistribution, Adrenals [2, 8]: 1.32 ± 0.88 % ID/g
biodistribution, Blood [2, 8]: 0.15 ± 0.08 % ID/g
biodistribution, Bone [2, 8]: 0.38 ± 0.18 % ID/g
biodistribution, Brain [2, 8]: 0.07 ± 0.03 % ID/g
biodistribution, Heart [2, 8]: 1.58 ± 0.79 % ID/g
biodistribution, Kidney [2, 8]: 1.56 ± 0.77 % ID/g
biodistribution, Large Intestine [2, 8]: 0.47 ± 0.22 % ID/g
biodistribution, Liver [2, 8]: 1.79 ± 1.07 % ID/g
biodistribution, Lung [2, 8]: 1.02 ± 0.45 % ID/g
biodistribution, Muscle [2, 8]: 0.21 ± 0.06 % ID/g
biodistribution, Pancreas [2, 8]: 1.76 ± 0.91 % ID/g
biodistribution, Small Intestine [2, 8]: 1.45 ± 0.82 % ID/g
biodistribution, Spleen [2, 8]: 1.27 ± 0.57 % ID/g
biodistribution, Stomach [2, 8]: 0.57 ± 0.24 % ID/g
biodistribution, Adrenals [2, 9]: 1.45 ± 0.43 % ID/g
biodistribution, Blood [2, 9]: 0.17 ± 0.01 % ID/g
biodistribution, Bone [2, 9]: 0.54 ± 0.16 % ID/g
biodistribution, Brain [2, 9]: 0.08 ± 0.02 % ID/g
biodistribution, Heart [2, 9]: 1.48 ± 0.41 % ID/g
biodistribution, Kidney [2, 9]: 1.45 ± 0.14 % ID/g
biodistribution, Large Intestine [2, 9]: 0.53 ± 0.20 % ID/g
biodistribution, Liver [2, 9]: 2.25 ± 0.77 % ID/g
biodistribution, Lung [2, 9]: 1.00 ± 0.44 % ID/g
biodistribution, Muscle [2, 9]: 0.35 ± 0.14 % ID/g
biodistribution, Pancreas [2, 9]: 1.99 ± 0.73 % ID/g
biodistribution, Small Intestine [2, 9]: 1.25 ± 0.34 % ID/g
biodistribution, Spleen [2, 9]: 1.43 ± 0.41 % ID/g
biodistribution, Stomach [2, 9]: 0.64 ± 0.31 % ID/g
biodistribution, Adrenals [2, 10]: 0.56 ± 0.22 % ID/g
biodistribution, Blood [2, 10]: 0.10 ± 0.05 % ID/g
biodistribution, Bone [2, 10]: 0.33 ± 0.12 % ID/g
biodistribution, Brain [2, 10]: 0.06 ± 0.03 % ID/g
biodistribution, Heart [2, 10]: 0.67 ± 0.21 % ID/g
biodistribution, Kidney [2, 10]: 0.76 ± 0.27 % ID/g
biodistribution, Large Intestine [2, 10]: 0.36 ± 0.24 % ID/g
biodistribution, Liver [2, 10]: 1.32 ± 0.73 % ID/g
biodistribution, Lung [2, 10]: 0.60 ± 0.23 % ID/g
biodistribution, Muscle [2, 10]: 0.24 ± 0.13 % ID/g
biodistribution, Pancreas [2, 10]: 1.31 ± 0.66 % ID/g
biodistribution, Small Intestine [2, 10]: 0.83 ± 0.37 % ID/g
biodistribution, Spleen [2, 10]: 0.88 ± 0.42 % ID/g
biodistribution, Stomach [2, 10]: 0.34 ± 0.15 % ID/g
biodistribution, Adrenals [2, 11]: 0.75 ± 0.07 % ID/g
biodistribution, Blood [2, 11]: 0.20 ± 0.01 % ID/g
biodistribution, Bone [2, 11]: 0.61 ± 0.04 % ID/g
biodistribution, Brain [2, 11]: 0.13 ± 0.01 % ID/g
biodistribution, Heart [2, 11]: 0.81 ± 0.02 % ID/g
biodistribution, Kidney [2, 11]: 0.90 ± 0.04 % ID/g
biodistribution, Large Intestine [2, 11]: 0.59 ± 0.05 % ID/g
biodistribution, Liver [2, 11]: 1.90 ± 0.03 % ID/g
biodistribution, Lung [2, 11]: 0.79 ± 0.05 % ID/g
biodistribution, Muscle [2, 11]: 0.61 ± 0.11 % ID/g
biodistribution, Pancreas [2, 11]: 1.65 ± 0.20 % ID/g
biodistribution, Small Intestine [2, 11]: 0.89 ± 0.02 % ID/g
biodistribution, Spleen [2, 11]: 1.34 ± 0.06 % ID/g
biodistribution, Stomach [2, 11]: 0.44 ± 0.15 % ID/g
uptake in the myocardium ([3]; PET summation images, rat): highest shortly after administration
period after re-opening of the occlusion over which filling in of the defect takes place (redistribution) ([3]; PET, rat with temporary coronary artery occlusion): 40 to 50 min
